Laboratory results reported in patent US9107926B2, “Mutant selectivity and combinations of a phosphoinositide 3-kinase inhibitor compound and chemotherapeutic agents for the treatment of cancer” (Genentech, Inc., priority 2012, dated 2015).

Experiments:
[1] = tested on: MCF-7 neo/HER2 breast cancer tumor xenografts; assay: In vivo mouse tumor xenograft efficacy; set-up: species or system mice
Method: (§1) Xenografts were initiated with cancer cells. […] Volume was calculated using the formula: […]

cancer cell lines = assay: cell proliferation assays across cancer cell lines (FIGS. 1-3, 12); type: cell-based; details: EC50, cell proliferation assays
Description: EC50 values were established for the experiments.

PI3K alpha H1047R mutant = PI3K alpha H1047R mutant (Homo sapiens, UniProt P42336, H1047R); details: relative to PI3K alpha; Folkes et al (2008); cited from earlier work
PI3K alpha E545K mutant = PI3K alpha E545K mutant (Homo sapiens, UniProt P42336, E545K); details: relative to PI3K alpha; Folkes et al (2008); cited from earlier work
[2] = tested on: HCC1954.x1 breast tumor xenografts; assay: In vivo mouse tumor xenograft efficacy; set-up: species or system mice; details: 150 mg/kg; QD x 21; PO
Method: The term uL means microliter.
as §1

[3] = tested on: Endocrine-resistant MCF7-ARO cells; assay: 4 day CellTiter-Glo assay in endocrine resistant cells; type: cell-based, human; details: FIG. 40A
Description: Endocrine-resistant MCF7-ARO cells were obtained by letrozole dose escalation over about 4 months.

MCF7-ARO cells = assay: modulation of PI3K pathway and ER pathway markers and apoptosis induction; type: cell-based, human; details: Twenty-four hour treatment
Description: Aromatase-expressing MCF7 cells convert androstenedione to estrogen in culture.

Sequence of PI3K alpha H1047R mutant (P42336 whole entry H1047R): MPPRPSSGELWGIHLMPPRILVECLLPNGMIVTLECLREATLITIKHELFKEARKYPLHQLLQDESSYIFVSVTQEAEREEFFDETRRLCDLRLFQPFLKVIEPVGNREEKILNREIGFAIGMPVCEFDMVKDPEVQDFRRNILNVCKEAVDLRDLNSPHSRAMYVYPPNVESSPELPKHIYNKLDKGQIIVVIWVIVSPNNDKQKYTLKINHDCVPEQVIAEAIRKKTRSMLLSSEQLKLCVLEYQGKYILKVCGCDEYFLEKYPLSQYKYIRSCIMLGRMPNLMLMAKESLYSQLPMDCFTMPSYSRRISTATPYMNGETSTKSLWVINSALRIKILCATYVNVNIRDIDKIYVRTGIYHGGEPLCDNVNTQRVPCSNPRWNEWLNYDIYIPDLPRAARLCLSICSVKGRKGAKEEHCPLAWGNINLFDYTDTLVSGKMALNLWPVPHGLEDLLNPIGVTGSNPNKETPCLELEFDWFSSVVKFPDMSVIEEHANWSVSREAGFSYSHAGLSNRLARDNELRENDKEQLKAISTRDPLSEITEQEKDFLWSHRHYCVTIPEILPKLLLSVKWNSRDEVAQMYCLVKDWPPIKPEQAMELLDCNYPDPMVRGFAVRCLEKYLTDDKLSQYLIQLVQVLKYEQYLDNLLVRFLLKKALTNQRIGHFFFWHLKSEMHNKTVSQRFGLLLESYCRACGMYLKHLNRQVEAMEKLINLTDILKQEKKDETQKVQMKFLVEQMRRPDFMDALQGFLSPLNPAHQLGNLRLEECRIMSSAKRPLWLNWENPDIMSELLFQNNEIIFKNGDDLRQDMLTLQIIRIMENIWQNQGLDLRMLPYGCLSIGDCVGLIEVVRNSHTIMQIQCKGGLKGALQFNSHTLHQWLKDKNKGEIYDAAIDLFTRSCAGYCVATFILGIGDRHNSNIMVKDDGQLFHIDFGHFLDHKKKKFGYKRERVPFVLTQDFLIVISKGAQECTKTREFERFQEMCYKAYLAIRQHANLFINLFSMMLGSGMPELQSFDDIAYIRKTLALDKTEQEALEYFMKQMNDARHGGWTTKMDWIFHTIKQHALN
Sequence of PI3K alpha H1047R mutant (P27986 whole entry partner): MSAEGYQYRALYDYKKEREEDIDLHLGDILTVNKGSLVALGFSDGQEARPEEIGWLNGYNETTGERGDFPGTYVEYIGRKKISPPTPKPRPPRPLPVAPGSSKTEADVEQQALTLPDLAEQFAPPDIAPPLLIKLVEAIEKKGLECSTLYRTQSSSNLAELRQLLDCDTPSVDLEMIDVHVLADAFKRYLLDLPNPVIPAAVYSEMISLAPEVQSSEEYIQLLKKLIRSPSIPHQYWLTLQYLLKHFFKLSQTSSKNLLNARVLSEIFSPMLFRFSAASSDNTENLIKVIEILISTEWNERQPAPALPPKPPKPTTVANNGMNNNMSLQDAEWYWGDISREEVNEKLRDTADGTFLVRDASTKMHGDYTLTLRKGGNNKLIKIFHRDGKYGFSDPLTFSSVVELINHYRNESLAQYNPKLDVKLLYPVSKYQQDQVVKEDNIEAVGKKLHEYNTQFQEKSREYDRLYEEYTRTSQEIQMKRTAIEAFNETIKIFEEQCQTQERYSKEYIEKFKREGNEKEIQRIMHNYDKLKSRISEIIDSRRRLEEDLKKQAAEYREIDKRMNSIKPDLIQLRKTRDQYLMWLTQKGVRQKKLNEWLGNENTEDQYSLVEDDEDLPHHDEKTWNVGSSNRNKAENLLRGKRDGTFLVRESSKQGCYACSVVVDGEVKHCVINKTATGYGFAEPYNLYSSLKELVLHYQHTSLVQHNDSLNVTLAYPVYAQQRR
Sequence of PI3K alpha E545K mutant (P42336 whole entry E545K): as the sequence (P42336 whole entry H1047R) above, with E545K, R1047H counted along it
Sequence of PI3K alpha E545K mutant (P27986 whole entry partner): as the sequence (P27986 whole entry partner) above

CC(=O)O[C@@]12CO[C@@H]1C[C@H](O)[C@@]1(C)C(=O)[C@H](O)C3=C(C)[C@@H](OC(=O)[C@H](O)[C@@H](NC(=O)OC(C)(C)C)c4ccccc4)C[C@@](O)([C@@H](OC(=O)c4ccccc4)[C@H]21)C3(C)C [Docetaxel, (2R,3S)—N-carboxy-3-phenylisoserine, N-tert-butyl ester, 13-ester with 5,20-epoxy-1,2,4,7,10,13-hexahydroxytax-11-en-9-one 4-acetate 2-benzoate, trihydrate, reference compound]
% TGI@ day 21 ([1]; QW, 7.5 mg/kg): 69%

CS(=O)(=O)N1CCN(Cc2cc3nc(-c4cccc5[nH]ncc45)nc(N4CCOCC4)c3s2)CC1 [GDC-0941, 4-(2-(1H-indazol-4-yl)-6-((4-(methylsulfonyl)piperazin-1-yl)methyl)thieno[3,2-d]pyrimidin-4-yl)morpholine, reference compound]
sensitivity of cancer cell lines with HER2 amplification versus those without HER2 amplification (cancer cell lines): 9 times
PI3K alpha H1047R mutant (PI3K alpha H1047R mutant): 1x
% TGI@ day 21 ([1]; QD, 150 mg/kg): 80%
PI3K alpha E545K mutant (PI3K alpha E545K mutant): 1x
% TGI@ day 21 [2]: 90%

C=C1C[C@@H]2[C@H](CC[C@]3(C)C(=O)CC[C@@H]23)[C@@]2(C)C=CC(=O)C=C12 [exemestane]
resistance of endocrine-resistant cells [3]: resistant

C[C@]12CC[C@@H]3c4ccc(O)cc4C[C@@H](CCCCCCCCC[S+]([O-])CCCC(F)(F)C(F)(F)F)[C@H]3[C@@H]1CC[C@@H]2O (some centres unmarked) [fulvestrant, (7a,1713)-7-{9-[(4,4,5,5,5-pentafluoropentyl)sulfinyl]nonyl}estra-1,3,5(10)-triene-3,17-diol]
resistance of endocrine-resistant cells [3]: resistant

N#Cc1ccc(C(c2ccc(C#N)cc2)n2cncn2)cc1 [letrozole, 4,4′-((1H-1,2,4-triazol-1-yl)methylene)dibenzonitrile]
resistance of endocrine-resistant cells [3]: resistant
PI3K and ER pathway markers (MCF7-ARO cells): increases HER2 and pAkt, but decreases pmTOR and pp 70S6K

CC/C(=C(\c1ccccc1)c1ccc(OCCN(C)C)cc1)c1ccccc1 [tamoxifen, (Z)-2-[4-(1,2-diphenylbut-1-enyl)phenoxy]-N,N-dimethylethanamine]
resistance of endocrine-resistant cells [3]: resistant
